This passage reports IC50 and inhibition results from patent US20170137410A1, “FUSED CYCLOALKYL-PYRIMIDINE COMPOUNDS AND USES THEREOF” (Medivation Technologies, Inc., priority 2014, published 2017).

Each structure is given as a SMILES string.

Common to all, as to format: biochemical
In one test the target is Trk A (Homo sapiens, UniProt P04629). Kind of test: HotSpot kinase assay against Trk A. Particulars: HotSpot 33P assay, ATP 10 μM-30 μM. As for the experimental part:
(§1) Kinase assays were performed using test compounds against a panel of Trk kinases: Trk A; Trk B; and Trk C. Each compound was tested at a concentration of 0.1 μM in single duplicate mode against the three kinases. Compounds were prepared as 10 mM stock solutions in DMSO prior to use in the assay. The control compound, staurosporine, was tested at 10 concentrations with three-fold serial dilution starting at 20 μM. IC50 values and curve fits were obtained using Prism (GraphPad Software). IC50 values were determined for staurosporine for comparison.
(§2) The screening was performed using the “HotSpot” assay platform. The assay measures the conversion of a peptide substrate to ^33P-labelled phosphorylated product. Briefly, specific kinase/substrate pairs along with required cofactors were prepared in reaction buffer. Specifically, the substrate was prepared in reaction buffer (20 mM Hepes, pH 7.5; 10 mM MgCl2; 1 mM EGTA; 0.02% Brij35; 0.02 mg/mL BSA; 0.1 mM Na3VO4; 2 mM DTT; 1% DMSO), followed by delivery of any required cofactor to the resulting substrate solution. The corresponding kinase was delivered into the substrate solution and the reaction mixture was mixed gently. Compound was delivered into the reaction mixture, followed 15-20 min later by addition of a mixture of ATP (Sigma, St. Louis Mo.) and ^33P ATP (specific activity 0.01 μCi/μL final; Perkin Elmer, Waltham, Mass.) to a final concentration of 10 μM-30 μM to initiate the reaction. Reactions were carried out at RT for 120 min, followed by spotting of the reactions onto P81 ion exchange filter paper (Whatman #3698-915; Whatman Inc., Piscataway, N.J.). Unbound phosphate was removed by extensive washing of filters in 0.75% phosphoric acid. […] The percent of enzyme inhibition was calculated based on the percent of remaining kinase activity.

For another test, the target named is Trk C (Homo sapiens, UniProt Q16288). Kind of test: HotSpot kinase assay against Trk C. As to conditions: HotSpot 33P assay, ATP 10 μM-30 μM. As for the experimental part: as §1, §2
For another test, the target named is T1, activated IR (Homo sapiens, UniProt P06213).
T1 construct: purchased Millipore 14-803
Kind of test: In vitro IR enzymatic assay (ADP-Glo). As to conditions: ATP 50 μM; for inhibition at 1 µM: compound 1 μM; for inhibition at 3 µM: compound 3 μM; for inhibition at 30 µM: compound 30 μM. As for the experimental part:
(§3) Inhibition of IGF-1R and IR kinases by compounds described herein were tested. The IC50 values were measured in vitro using an ADP-Glo kinase assay Kit (Promega). For the IGF-1R assay, active recombinant IGF-1R (Millipore #14-802) was used at 1 ng/reaction, the substrate IGF-1R tide (Millipore #12-527) was used at 125 μM and ATP was used at 100 μM. For the IR assay, active recombinant IR (Millipore #14-803) was used at 1 ng/reaction, the substrate Axl tide (Millipore #12-516) was used at 125 μM and ATP at 50 μM. Kinase reactions in both assays were conducted at 30° C. for 20 min with increasing concentrations of the test compounds.
(§4) The assay results as the percent inhibition of binding are presented in Tables B2 and B3 for IGF-1R and IR respectively.
On the technique in general: ADP-Glo first removes unused ATP, then detects ADP through luciferase.

In a further test the target is Trk B (Homo sapiens, UniProt Q16620). Kind of test: HotSpot kinase assay against Trk B. As to conditions: HotSpot 33P assay, ATP 10 μM-30 μM. As for the experimental part: as §1, §2
The target of another test is T2, activated IGF-1R (Homo sapiens, UniProt P08069).
T2 construct: purchased Millipore 14-802
The test is described as follows: In vitro IGF-1R enzymatic assay (ADP-Glo). As to conditions: ATP 100 μM; for inhibition at 3 µM: compound 3 μM; for inhibition at 10 µM: compound 10 μM; for inhibition at 30 µM: compound 30 μM; for inhibition at 1 µM: compound 1 μM. As for the experimental part: as §3, §4

Sequence of Trk A (P04629 33-796): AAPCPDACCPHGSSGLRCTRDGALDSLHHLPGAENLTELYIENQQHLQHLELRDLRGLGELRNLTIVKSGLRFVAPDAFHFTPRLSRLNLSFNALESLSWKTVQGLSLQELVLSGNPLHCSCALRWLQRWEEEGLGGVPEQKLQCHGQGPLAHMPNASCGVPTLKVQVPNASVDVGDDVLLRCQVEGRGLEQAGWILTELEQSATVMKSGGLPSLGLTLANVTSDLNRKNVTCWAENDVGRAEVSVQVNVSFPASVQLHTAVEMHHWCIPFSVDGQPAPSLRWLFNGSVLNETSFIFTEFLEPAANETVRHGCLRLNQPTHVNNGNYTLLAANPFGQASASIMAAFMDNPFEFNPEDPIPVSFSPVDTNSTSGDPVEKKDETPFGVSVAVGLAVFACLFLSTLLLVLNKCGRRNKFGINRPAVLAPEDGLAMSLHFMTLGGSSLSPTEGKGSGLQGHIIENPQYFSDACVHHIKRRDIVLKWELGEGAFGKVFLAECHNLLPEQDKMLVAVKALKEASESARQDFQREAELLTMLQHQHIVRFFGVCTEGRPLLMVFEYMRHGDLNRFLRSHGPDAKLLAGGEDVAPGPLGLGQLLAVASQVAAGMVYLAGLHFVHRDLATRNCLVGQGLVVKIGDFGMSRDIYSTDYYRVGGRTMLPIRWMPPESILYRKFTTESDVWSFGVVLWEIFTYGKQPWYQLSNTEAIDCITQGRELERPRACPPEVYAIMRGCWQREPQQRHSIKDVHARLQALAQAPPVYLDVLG
Sequence of Trk C (Q16288 32-839): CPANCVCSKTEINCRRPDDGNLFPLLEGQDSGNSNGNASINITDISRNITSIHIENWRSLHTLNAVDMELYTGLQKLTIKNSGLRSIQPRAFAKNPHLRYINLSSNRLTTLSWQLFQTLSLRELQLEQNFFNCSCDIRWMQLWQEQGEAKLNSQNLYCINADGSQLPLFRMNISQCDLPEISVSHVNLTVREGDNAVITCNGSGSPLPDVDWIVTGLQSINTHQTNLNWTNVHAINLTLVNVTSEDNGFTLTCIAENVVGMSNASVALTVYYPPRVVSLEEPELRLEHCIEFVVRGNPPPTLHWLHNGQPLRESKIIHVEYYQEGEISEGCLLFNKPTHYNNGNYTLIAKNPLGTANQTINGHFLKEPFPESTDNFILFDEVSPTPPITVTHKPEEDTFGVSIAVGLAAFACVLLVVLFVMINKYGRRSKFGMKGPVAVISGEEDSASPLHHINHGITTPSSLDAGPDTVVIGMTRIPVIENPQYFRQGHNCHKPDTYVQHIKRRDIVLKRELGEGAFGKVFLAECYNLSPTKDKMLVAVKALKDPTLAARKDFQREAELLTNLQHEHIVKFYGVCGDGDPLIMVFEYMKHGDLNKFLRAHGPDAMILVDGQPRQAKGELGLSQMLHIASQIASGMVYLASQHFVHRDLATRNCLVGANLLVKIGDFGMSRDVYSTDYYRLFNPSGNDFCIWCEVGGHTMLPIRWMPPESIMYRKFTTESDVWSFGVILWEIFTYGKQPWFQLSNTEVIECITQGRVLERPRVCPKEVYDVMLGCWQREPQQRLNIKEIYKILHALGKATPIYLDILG
Sequence of Trk B (Q16620 32-822): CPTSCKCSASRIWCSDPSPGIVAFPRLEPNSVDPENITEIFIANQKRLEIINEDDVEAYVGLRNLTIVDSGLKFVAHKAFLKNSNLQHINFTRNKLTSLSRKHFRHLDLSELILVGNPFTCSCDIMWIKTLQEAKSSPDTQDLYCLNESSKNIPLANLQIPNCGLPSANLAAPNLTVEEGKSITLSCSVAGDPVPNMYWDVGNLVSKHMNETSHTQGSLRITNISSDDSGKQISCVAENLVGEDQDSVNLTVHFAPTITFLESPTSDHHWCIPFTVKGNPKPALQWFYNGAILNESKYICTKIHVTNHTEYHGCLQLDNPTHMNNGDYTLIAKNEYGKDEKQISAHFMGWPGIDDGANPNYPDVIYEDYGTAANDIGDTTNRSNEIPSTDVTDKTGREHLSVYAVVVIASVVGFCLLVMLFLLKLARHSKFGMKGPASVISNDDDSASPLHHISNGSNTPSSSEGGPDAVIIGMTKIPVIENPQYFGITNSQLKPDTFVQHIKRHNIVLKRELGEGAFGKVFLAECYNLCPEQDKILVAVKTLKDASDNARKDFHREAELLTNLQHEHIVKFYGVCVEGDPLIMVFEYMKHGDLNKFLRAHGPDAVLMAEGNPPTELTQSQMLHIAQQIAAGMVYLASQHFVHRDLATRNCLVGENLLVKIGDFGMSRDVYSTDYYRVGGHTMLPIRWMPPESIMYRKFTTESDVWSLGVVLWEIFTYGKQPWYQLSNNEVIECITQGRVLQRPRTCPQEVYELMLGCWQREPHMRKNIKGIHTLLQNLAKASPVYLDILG
T2 sequence (P08069 31-1367): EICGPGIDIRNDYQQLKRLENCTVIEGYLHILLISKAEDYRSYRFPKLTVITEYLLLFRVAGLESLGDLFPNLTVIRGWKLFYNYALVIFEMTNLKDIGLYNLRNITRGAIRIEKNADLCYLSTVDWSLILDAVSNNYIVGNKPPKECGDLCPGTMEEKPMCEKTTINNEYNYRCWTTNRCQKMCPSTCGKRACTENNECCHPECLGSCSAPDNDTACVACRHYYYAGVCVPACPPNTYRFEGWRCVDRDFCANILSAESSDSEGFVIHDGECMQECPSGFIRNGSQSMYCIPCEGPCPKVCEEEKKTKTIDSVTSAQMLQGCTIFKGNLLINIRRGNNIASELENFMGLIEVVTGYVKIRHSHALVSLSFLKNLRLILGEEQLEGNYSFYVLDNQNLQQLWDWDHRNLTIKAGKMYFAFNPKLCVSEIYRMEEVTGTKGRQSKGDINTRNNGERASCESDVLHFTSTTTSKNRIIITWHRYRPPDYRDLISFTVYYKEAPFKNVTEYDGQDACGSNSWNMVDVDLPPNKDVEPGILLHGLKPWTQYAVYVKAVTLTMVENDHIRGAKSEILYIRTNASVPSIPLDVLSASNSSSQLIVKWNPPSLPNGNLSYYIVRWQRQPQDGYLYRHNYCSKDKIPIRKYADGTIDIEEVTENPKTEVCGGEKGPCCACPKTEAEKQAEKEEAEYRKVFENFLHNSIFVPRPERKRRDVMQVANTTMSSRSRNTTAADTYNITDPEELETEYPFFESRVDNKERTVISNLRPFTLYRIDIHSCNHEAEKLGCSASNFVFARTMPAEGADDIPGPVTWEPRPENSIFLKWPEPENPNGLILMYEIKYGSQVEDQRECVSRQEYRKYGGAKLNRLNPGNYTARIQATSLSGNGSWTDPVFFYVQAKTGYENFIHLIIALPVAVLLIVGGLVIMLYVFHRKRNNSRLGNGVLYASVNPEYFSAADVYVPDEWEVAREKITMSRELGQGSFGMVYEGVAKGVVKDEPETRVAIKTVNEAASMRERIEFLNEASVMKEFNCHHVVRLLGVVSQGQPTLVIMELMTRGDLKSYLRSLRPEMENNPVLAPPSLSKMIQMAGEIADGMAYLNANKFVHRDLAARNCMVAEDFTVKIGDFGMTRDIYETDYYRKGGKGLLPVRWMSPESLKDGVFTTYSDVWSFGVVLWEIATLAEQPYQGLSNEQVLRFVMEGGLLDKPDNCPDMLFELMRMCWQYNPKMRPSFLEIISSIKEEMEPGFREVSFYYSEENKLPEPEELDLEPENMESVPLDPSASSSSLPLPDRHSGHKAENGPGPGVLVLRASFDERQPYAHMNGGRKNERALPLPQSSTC
T1 sequence (P06213 28-1382): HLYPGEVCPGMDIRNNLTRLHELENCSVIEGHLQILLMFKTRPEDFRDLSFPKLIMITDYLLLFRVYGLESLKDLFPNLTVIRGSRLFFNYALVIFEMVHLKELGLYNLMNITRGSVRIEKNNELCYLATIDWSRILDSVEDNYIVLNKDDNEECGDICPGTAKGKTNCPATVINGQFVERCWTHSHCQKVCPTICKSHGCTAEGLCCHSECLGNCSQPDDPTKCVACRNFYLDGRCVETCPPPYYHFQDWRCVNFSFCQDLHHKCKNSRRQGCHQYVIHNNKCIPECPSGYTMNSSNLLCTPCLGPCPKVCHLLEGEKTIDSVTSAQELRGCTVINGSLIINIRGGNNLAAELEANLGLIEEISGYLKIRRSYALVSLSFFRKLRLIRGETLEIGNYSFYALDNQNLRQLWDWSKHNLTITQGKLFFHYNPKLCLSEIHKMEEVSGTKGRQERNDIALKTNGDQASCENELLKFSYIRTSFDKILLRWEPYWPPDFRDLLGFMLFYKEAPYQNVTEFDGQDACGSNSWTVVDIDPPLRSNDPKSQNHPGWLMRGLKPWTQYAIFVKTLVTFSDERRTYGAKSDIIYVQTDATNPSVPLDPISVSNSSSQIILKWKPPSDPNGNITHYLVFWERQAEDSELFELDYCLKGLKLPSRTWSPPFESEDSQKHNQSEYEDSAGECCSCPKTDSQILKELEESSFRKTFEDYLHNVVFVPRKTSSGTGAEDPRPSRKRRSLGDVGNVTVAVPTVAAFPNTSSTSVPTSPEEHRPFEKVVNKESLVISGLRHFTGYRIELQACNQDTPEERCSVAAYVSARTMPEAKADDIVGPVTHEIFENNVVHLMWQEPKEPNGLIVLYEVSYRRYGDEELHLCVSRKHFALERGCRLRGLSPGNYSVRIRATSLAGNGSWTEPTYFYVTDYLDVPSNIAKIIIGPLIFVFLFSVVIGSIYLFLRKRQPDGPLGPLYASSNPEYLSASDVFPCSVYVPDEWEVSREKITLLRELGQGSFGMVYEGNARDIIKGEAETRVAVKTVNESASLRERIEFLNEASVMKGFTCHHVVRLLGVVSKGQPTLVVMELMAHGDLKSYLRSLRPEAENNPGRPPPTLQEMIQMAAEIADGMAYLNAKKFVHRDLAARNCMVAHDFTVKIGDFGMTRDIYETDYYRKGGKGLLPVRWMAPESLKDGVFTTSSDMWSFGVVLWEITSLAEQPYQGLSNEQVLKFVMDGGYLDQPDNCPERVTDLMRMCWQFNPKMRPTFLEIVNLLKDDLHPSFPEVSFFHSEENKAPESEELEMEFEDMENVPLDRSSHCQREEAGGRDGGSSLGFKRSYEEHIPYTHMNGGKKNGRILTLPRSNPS

Usually IC50 stands for the concentration that gives 50% inhibition. Low readings indicate inhibition by little substance, high ones a need for much substance. A word on the inhibition: it is the change of the read-out against control, counted positive when it falls. As for `CC(C)c1cc(Nc2nc(N3CCC[C@H]3C(=O)N3CC(F)(F)C(F)(F)C3)nc3c2CCC3)n[nH]1` [112b, (S)-(1-(4-(5-isopropyl-1H-pyrazol-3-ylamino)-6,7-dihydro-5H-cyclopenta[d]pyrimidin-2-yl)pyrrolidin-2-yl)(3,3,4,4-tetrafluoropyrrolidin-1-yl)methanone], the IC50 on Trk A amounted to 109 nM; on Trk C, 1.3 nM; against Trk B it was 4 nM. Moreover, the inhibition at 1 µM on activated IR was determined as 12%. Besides, the inhibition at 3 µM at activated IR and on activated IGF-1R was 36% each time. The figures for the inhibition at 30 µM on activated IR and against activated IGF-1R were 89% and 86%, respectively. For the same molecule, the inhibition at 10 µM against activated IGF-1R worked out at 65%.

Consider `O=C([C@@H]1CCCN1c1nc2c(c(Nc3cc(C4CCCC4)[nH]n3)n1)CCC2)N1CC(F)(F)C(F)(F)C1` [110b, (S)-(1-(4-(5-cyclopentyl-1H-pyrazol-3-ylamino)-6,7-dihydro-5H-cyclopenta[d]pyrimidin-2-yl)pyrrolidin-2-yl)(3,3,4,4-tetrafluoropyrrolidin-1-yl)methanone], for which the IC50 on Trk A was determined as 41 nM; against Trk C it was 0.8 nM; against Trk B, 2 nM. Further, the results for the inhibition at 1 µM at activated IR and against activated IGF-1R were 3% and 1%, respectively. Also, the results for the inhibition at 3 µM on activated IR and on activated IGF-1R were 21% and 18%, respectively. For the same molecule, the inhibition at 30 µM was 74% on activated IR and 68% on activated IGF-1R. Also, on activated IGF-1R, the inhibition at 10 µM amounted to 34%.

At Trk A, `O=C([C@@H]1CCCN1c1nc2c(c(Nc3cc(C4CCCC4)[nH]n3)n1)CCC2)N1CCC(F)(F)C1` [109b, (S)-(1-(4-((5-cyclopentyl-1H-pyrazol-3-yl)amino)-6,7-dihydro-5H-cyclopenta[d]pyrimidin-2-yl)pyrrolidin-2-yl)(3,3-difluoropyrrolidin-1-yl)methanone] gave an IC50 of 11 nM. The molecule also gave an IC50 at Trk C of 0.3 nM. Also, at activated IR, the inhibition at 1 µM was 12%, the inhibition at 3 µM was 39% and the inhibition at 30 µM turned out to be 86%. Further, the midpoint of inhibition at Trk B, the IC50, lay at 1 nM. On activated IGF-1R, the inhibition at 1 µM amounted to 12%, the inhibition at 3 µM was determined as 33%, the inhibition at 10 µM worked out at 61% and the inhibition at 30 µM amounted to 84%.

On to `CC(=O)N1CCN(C(=O)[C@@H]2CCCN2c2nc3c(c(Nc4cc(C5CCCC5)n[nH]4)n2)CCC3)CC1` [137b, 1-[4-[(2S)-1-[4-[(3-cyclopentyl-1H-pyrazol-5-yl)amino]-6,7-dihydro-5H-cyclopenta[d]pyrimidin-2-yl]pyrrolidine-2-carbonyl]piperazin-1-yl]ethanone], for which the values for the IC50 at Trk A, against Trk C and on Trk B were 1910 nM, 110 nM and 265 nM, respectively. For the same molecule, the inhibition at 1 µM on activated IR came out at 19%; on activated IGF-1R, 10%. The inhibition at 3 µM at activated IR was 9%; against activated IGF-1R, -1%. For the same molecule, the inhibition at 30 µM at activated IR amounted to 60%; at activated IGF-1R it was 43%. For the same molecule, the inhibition at 10 µM at activated IGF-1R turned out to be 15%.

In turn, `CC1(C)CCN(C(=O)[C@H]2CCCN2c2nc3c(c(Nc4cc(C5CCCC5)n[nH]4)n2)CCC3)CC1` [141a, (R)-(1-(4-((5-cyclopentyl-1H-pyrazol-3-yl)amino)-6,7-dihydro-5H-cyclopenta[d]pyrimidin-2-yl)pyrrolidin-2-yl)(4,4-dimethylpiperidin-1-yl)methanone] registered an IC50 against Trk A of 135 nM. Also, the IC50 on Trk C stood at 146 nM. Also, on activated IR, the inhibition at 1 µM was 17%, the inhibition at 3 µM came out at 47% and the inhibition at 30 µM was 97%. The same molecule yielded an IC50 against Trk B of 231 nM. In addition, at activated IGF-1R, the inhibition at 1 µM stood at 27%, the inhibition at 3 µM came out at 47%, the inhibition at 10 µM worked out at 74% and the inhibition at 30 µM worked out at 96%.

At Trk A, `CC(C)c1cc(Nc2nc(N3CCC[C@@H]3C(=O)N3CCCC3)nc3c2CCC3)n[nH]1` [138a, (R)-(1-(4-((5-isopropyl-1H-pyrazol-3-yl)amino)-6,7-dihydro-5H-cyclopenta[d]pyrimidin-2-yl)pyrrolidin-2-yl)(pyrrolidin-1-yl)methanone] registered an IC50 of 878 nM. Also, the IC50 at Trk C is 105 nM. At activated IR, the inhibition at 1 µM worked out at 37%, the inhibition at 3 µM was found to be 61% and the inhibition at 30 µM stood at 96%. The molecule further gave an IC50 on Trk B of 246 nM. At activated IGF-1R, the inhibition at 3 µM worked out at 62%, the inhibition at 10 µM was determined as 83% and the inhibition at 30 µM came to 95%.

For `CN1CCN(C(=O)[C@@H]2CCCN2c2nc3c(c(Nc4cc(C5CCCC5)[nH]n4)n2)CCC3)CC1` [134b, (S)-(1-(4-(5-cyclopentyl-1H-pyrazol-3-ylamino)-6,7-dihydro-5H-cyclopenta[d]pyrimidin-2-yl)pyrrolidin-2-yl)(4-methylpiperazin-1-yl)methanone], the IC50 against Trk A was found to be 337 nM; against Trk C, 4.8 nM; against Trk B, 31 nM. The inhibition at 1 µM against activated IR worked out at 26%; at activated IGF-1R, 16%. Also, the results for the inhibition at 3 µM on activated IR and against activated IGF-1R were 36% and 26%, respectively. Further, the inhibition at 30 µM came to 85% against activated IR and 77% against activated IGF-1R. Also, at activated IGF-1R, the inhibition at 10 µM is 55%.

Take `CN1CCN(C(=O)[C@H]2CCCN2c2nc3c(c(Nc4cc(C5CCCC5)[nH]n4)n2)CCC3)CC1` [134a, (R)-(1-(4-(5-cyclopentyl-1H-pyrazol-3-ylamino)-6,7-dihydro-5H-cyclopenta[d]pyrimidin-2-yl)pyrrolidin-2-yl)(4-methylpiperazin-1-yl)methanone]: the results for the IC50 against Trk A, on Trk C and on Trk B were 32 nM, 44.4 nM and 90 nM, respectively. Moreover, the inhibition at 1 µM against activated IR was found to be 80%; against activated IGF-1R, 73%.

Take `O=C(Nc1nccs1)[C@@H]1CCCN1c1nc2c(c(Nc3cc(C4CCCC4)[nH]n3)n1)CCC2` [133b, (S)-1-(4-(5-cyclopentyl-1H-pyrazol-3-ylamino)-6,7-dihydro-5H-cyclopenta[d]pyrimidin-2-yl)-N-(thiazol-2-yl)pyrrolidine-2-carboxamide]: the results for the IC50 on Trk A, against Trk C and at Trk B were 0.515 nM, 0.243 nM and 0.038 nM, respectively. Further, the figures for the inhibition at 1 µM against activated IR and against activated IGF-1R were 97% and 95%, respectively.
